According to patent US6706663B2, “Herbicidal 3-heterocyclic substituted benzisothiazole and benzisoxazole compounds” (Wyeth, priority 2000, dated 2004):

Assays:
[1] = tested on: GLXMAW (Soybean, Williams); test: Preemergence herbicidal evaluation; assay type: in vivo, Glycine max, (L.) Merr. cv Williams; settings: Rate 0.2500 kg/ha; rated 4-5 weeks after treatment
Source text: (§1) Results of herbicide evaluation are expressed on a rating scale (0-9). The scale is based upon a visual observation of plant stand, vigor, malformation, size, chlorosis and overall plant appearance as compared with a control.
(§2) The preemergence herbicidal activity of the test compounds of the present invention is exemplified by the following tests in which the seeds of a variety of monocotyledonous and dicotyledonous plants are separately mixed with potting soil and planted on top of approximately one inch of soil in separate pint cups. […] The treated cups are then placed on greenhouse benches, watered and cared for in accordance with conventional greenhouse procedures. From four to five weeks after treatment, the tests are terminated and each cup is examined and rated according to the rating system provided in Example 87. The plant species used and the compounds evaluated are the same as those shown in Example 87.

[2] = tested on: SETVI (Setaria viridis); test: Preemergence herbicidal evaluation; assay type: in vivo, (L.) Beau; settings: Rate 0.2500 kg/ha; rated 4-5 weeks after treatment
Source text: as §1, §2

[3] = tested on: ECHCG (Echinochloa crus-galli); test: Preemergence herbicidal evaluation; assay type: in vivo, (L.) Beau; settings: Rate 0.2500 kg/ha; rated 4-5 weeks after treatment
Source text: as §1, §2

[4] = tested on: ECHCG (Echinochloa crus-galli); test: Postemergence herbicidal evaluation; assay type: in vivo, (L.) Beau; settings: postemergence, rate 0.0620 kg/ha
Description: (§3) In the tests, seedling plants are grown in jiffy flats for about two weeks. […] After spraying, the plants are placed on greenhouse benches and are cared for in accordance with conventional greenhouse procedures. From four to five weeks after treatment, the seedling plants are examined and rated according to the rating system set forth below. Where more than one test is involved for a given compound, the data are averaged.
as §1

[5] = tested on: IPOHE (Ipomoea hederacea); test: Postemergence herbicidal evaluation; assay type: in vivo, (L.) Jacq.; settings: postemergence, rate 0.0620 kg/ha
Description: as §3, §1

[6] = tested on: GLXMAW (Soybean, Williams); test: Postemergence herbicidal evaluation; assay type: in vivo, Glycine max, (L.) Merr. cv Williams; settings: postemergence, rate 0.0620 kg/ha
Description: as §3, §1

[7] = tested on: IPOHE (Ipomoea hederacea); test: Preemergence herbicidal evaluation; assay type: in vivo, (L.) Jacq.; settings: Rate 0.2500 kg/ha; rated 4-5 weeks after treatment
Source text: as §1, §2

[8] = tested on: MOOVA (Monochoria vaginalis); test: Flooded paddy, preemergence weed control; assay type: in vivo, Presl.; settings: rate 0.1250 kg/ha, rated 3-4 weeks after treatment, 0-9 rating scale
Description: as §1
(§4) Preemergence herbicidal activity under flooded paddy conditions is determined as follows: plant seeds or propagating organs are planted in the top 0.5 cm of silt loam soil in 32 oz. plastic containers with a diameter of 10.5 cm and no drainage holes. Water is added to these containers and maintained at 1.5 to 3 cm above the soil surface for the duration of the experiment. […] The treated containers are placed on greenhouse benches and cared for in accordance with conventional greenhouse procedures.

[9] = tested on: CYPIR (Cyperus iria); test: Flooded paddy, preemergence weed control; assay type: in vivo; settings: rate 0.1250 kg/ha, rated 3-4 weeks after treatment, 0-9 rating scale
Description: as §1, §4

[10] = tested on: SETVI (Setaria viridis); test: Postemergence herbicidal evaluation; assay type: in vivo, (L.) Beau; settings: postemergence, rate 0.0620 kg/ha
Description: In the tests, seedling plants are grown in jiffy flats for about two weeks. The test compounds are dispersed in 50/50 acetone/water mixtures containing 0.5% TWEEN® 20, a polyoxyethylene sorbitan monolaurate surfactant of Atlas Chemical Industries, in sufficient quantities to provide the equivalent of about 0.0040 kg to 1.000 kg per hectare of active compound when applied to the plants through a spray nozzle operating at 40 psi for a predetermined time. After spraying, the plants are placed on greenhouse benches and are cared for in accordance with conventional greenhouse procedures. From four to five weeks after treatment, the seedling plants are examined and rated according to the rating system set forth below. Where more than one test is involved for a given compound, the data are averaged.
as §1

[11] = tested on: TRZAWR (Wheat, Winter, cv Riband); test: Preemergence herbicidal evaluation; assay type: in vivo, Triticum aestivum; settings: Rate 0.2500 kg/ha; rated 4-5 weeks after treatment
Source text: as §1, §2

[12] = tested on: GALAP (Galium aparine); test: Preemergence herbicidal evaluation; assay type: in vivo; settings: Rate 0.2500 kg/ha; rated 4-5 weeks after treatment
Source text: as §1, §2

[13] = tested on: TRZAWR (Wheat, Winter, cv Riband); test: Postemergence herbicidal evaluation; assay type: in vivo, Triticum aestivum; settings: postemergence, rate 0.0620 kg/ha
Description: as §3, §1

[14] = tested on: SAGPY (Sagittaria pygmaea); test: Flooded paddy, preemergence weed control; assay type: in vivo, L.; settings: rate 0.1250 kg/ha, rated 3-4 weeks after treatment, 0-9 rating scale
Description: as §1, §4

[15] = tested on: AMBEL (Ambrosia artemisifolia); test: Postemergence herbicidal evaluation; assay type: in vivo, L.; settings: postemergence, rate 0.0620 kg/ha
Description: as §3, §1

[16] = tested on: CHEAL (Chenopodium album); test: Postemergence herbicidal evaluation; assay type: in vivo, L.; settings: postemergence, rate 0.0620 kg/ha
Description: as §3, §1

[17] = tested on: CASOB (Cassia obtusifolia); test: Postemergence herbicidal evaluation; assay type: in vivo, L.; settings: postemergence, rate 0.0620 kg/ha
Description: as §3, §1

[18] = tested on: ABUTH (Abutilon theophrasti); test: Preemergence herbicidal evaluation; assay type: in vivo, Medic.; settings: Rate 0.2500 kg/ha; rated 4-5 weeks after treatment
Source text: as §1, §2

[19] = tested on: ORYSAT (Rice, Tebonnet); test: Preemergence herbicidal evaluation; assay type: in vivo, Oryza sativa, (L.) Tebonnet; settings: Rate 0.2500 kg/ha; rated 4-5 weeks after treatment
Source text: as §1, §2

[20] = tested on: ORYSAT (Rice, Tebonnet); test: Postemergence herbicidal evaluation; assay type: in vivo, Oryza sativa, (L.) Tebonnet; settings: postemergence, rate 0.0620 kg/ha
Description: as §3, §1

[21] = tested on: ZEAMX (Corn, Field); test: Postemergence herbicidal evaluation; assay type: in vivo, Zea mays, L.; settings: postemergence, rate 0.0620 kg/ha
Description: as §3, §1

[22] = tested on: AMBEL (Ambrosia artemisifolia); test: Preemergence herbicidal evaluation; assay type: in vivo, L.; settings: Rate 0.2500 kg/ha; rated 4-5 weeks after treatment
Source text: as §1, §2

[23] = tested on: CHEAL (Chenopodium album); test: Preemergence herbicidal evaluation; assay type: in vivo, L.; settings: Rate 0.2500 kg/ha; rated 4-5 weeks after treatment
Source text: as §1, §2

[24] = tested on: CASOB (Cassia obtusifolia); test: Preemergence herbicidal evaluation; assay type: in vivo, L.; settings: Rate 0.2500 kg/ha; rated 4-5 weeks after treatment
Source text: as §1, §2

[25] = tested on: ORYSAT (Rice, Tebonnet); test: Flooded paddy, post-transplant rice tolerance; assay type: in vivo, Oryza sativa, (L.) Tebonnet; settings: flooded paddy, post-transplant rice; rate 0.1250 kg/ha; rated 3-4 weeks after treatment; 0-9 rating scale
Description: as §1
The tolerance of transplanted rice to post-transplanted herbicide application is determined as follows: two ten-day-old rice seedlings (cv. Tebonnet) are transplanted into silt loam soil in 32 oz. plastic containers with a diameter of 10.5 cm and no drainage holes. After transplanting, the containers are flooded and the water level is maintained at 1.5 to 3 cm above the soil surface. […] The treated containers are placed on greenhouse benches, watered such that the water level is maintained as stated above, and cared for in accordance with conventional greenhouse procedures.

[26] = tested on: ZEAMX (Corn, Field); test: Preemergence herbicidal evaluation; assay type: in vivo, Zea mays, L.; settings: Rate 0.2500 kg/ha; rated 4-5 weeks after treatment
Source text: as §1, §2

[27] = tested on: GALAP (Galium aparine); test: Postemergence herbicidal evaluation; assay type: in vivo; settings: postemergence, rate 0.0620 kg/ha
Description: as §3, §1

[28] = tested on: ABUTH (Abutilon theophrasti); test: Postemergence herbicidal evaluation; assay type: in vivo, Medic.; settings: postemergence, rate 0.0620 kg/ha
Description: as §3, §1

[29] = tested on: ECHORC (Echinochloa oryzoides); test: Flooded paddy, preemergence weed control; assay type: in vivo, Echinochloa oryzoides (Ard.) Fritsch.; settings: rate 0.1250 kg/ha, rated 3-4 weeks after treatment, 0-9 rating scale
Description: as §1, §4

## Cn1c(C(F)(F)F)cc(=O)n(-c2ccc3snc(C4OCC(CBr)O4)c3c2)c1=O (centres unmarked) [Compound 79, 3-[3-[4-(bromomethyl)-1,3-dioxolan-2-yl]-1,2-benzisothiazol-5-yl]-1-methyl-6-(trifluoromethyl)uracil]
[1]
  Preemergence herbicidal rating GLXMAW: 9.0
[2]
  Preemergence herbicidal rating SETVI: 9.0
[3]
  Preemergence herbicidal rating ECHCG: 9.0
[4]
  ECHCG herbicidal rating: 4.0
[5]
  IPOHE herbicidal rating: 8.0
[6]
  GLXMAW herbicidal rating: 6.0
[7]
  Preemergence herbicidal rating IPOHE: 7.0
[8]
  herbicidal rating, MOOVA: 9.0
[9]
  herbicidal rating, CYPIR: 9.0
[10]
  SETVI herbicidal rating: 6.0
[11]
  Preemergence herbicidal rating TRZAWR: 8.0
[12]
  Preemergence herbicidal rating GALAP: 9.0
[13]
  TRZAWR herbicidal rating: 2.5
[14]
  herbicidal rating, SAGPY: 3.0
[15]
  AMBEL herbicidal rating: 9.0
[16]
  CHEAL herbicidal rating: 9.0
[17]
  CASOB herbicidal rating: 6.0
[18]
  Preemergence herbicidal rating ABUTH: 9.0
[19]
  Preemergence herbicidal rating ORYSAT: 8.0
[20]
  ORYSAT herbicidal rating: 3.5
[21]
  ZEAMX herbicidal rating: 3.5
[22]
  Preemergence herbicidal rating AMBEL: 9.0
[23]
  Preemergence herbicidal rating CHEAL: 9.0
[24]
  Preemergence herbicidal rating CASOB: 9.0
[25]
  herbicidal rating, ORYSAT (rice tolerance): 7.0
[26]
  Preemergence herbicidal rating ZEAMX: 7.0
[27]
  GALAP herbicidal rating: 4.0
[28]
  ABUTH herbicidal rating: 9.0
[29]
  herbicidal rating, ECHORC: 9.0
